Holding throughout (format): cell-based, human
What all share (conditions): VAPFPEVF 17.5 µM, YFYPEL 0.03 µM, YQEPVLGPVRGPFPIIV 0.4 µM, normalized to PPIA and GAPDH and untreated cells, mean, n = 3–5

One assay relates to TAS2R1. Kind of assay: RT-qPCR gene expression of TAS2R1 in HGT-1 cells. As for the experimental part:
(§1) For mRNA expression analysis, 800,000 cells were seeded in a T25 cell culture flask (25 cm^2) 1 day before the experiment. After incubation with 17.5 μM […], 0.03 μM YFYPEL, or 0.4 μM […] for 15, 30, 60, and 120 min, RNA was isolated using the peqGOLD RNA Kit (VWR Peqlab, USA) following the manufacturer’s protocol. Determination of RNA concentration (A260/A280 between 2.03 and 2.09) was performed on a NanoDrop One^c (Thermo Fisher Scientific Inc., USA). RNA integrity number (RIN 9.9–10.0, version 2.6, assay class Eukaryote Total RNA Nano) was analyzed using a 2100 Bioanalyzer (Agilent Technologies, USA). Removal of gDNA and synthesis of cDNA were performed using the iScript gDNA Clear cDNA Synthesis Kit (BioRad, Feldkirchen, Germany) following the manufacturer’s protocol. Real-time-qPCR (RT-qPCR) was performed with 50 ng cDNA amplified with SsoAdvanced Universal SYBR Green Supermix (Bio-Rad Laboratories, Inc., USA). The sequences of the forward and reverse primers of the 25 TAS2Rs were taken from Liszt et al.([13]) (Supporting Information Table-SI 3). Verified primers for the TAS1Rs (TAS1R1: qHsaCID0013443; TAS1R2: qHsaCID0016106; TAS1R3: qHsaCED0002321) and for MAPK1 (qHsaCEP0050000) were obtained from Bio-Rad Laboratories. PPIA[37] and GAPDH[38] were used as reference genes. The effects of the peptides on gene expression were analyzed in comparison to untreated control cells.
A general note: Quantitative PCR measures a nucleic acid by following its amplification.

The subject of a further assay is TAS2R46. Kind of assay: RT-qPCR gene expression of TAS2R46 in HGT-1 cells. As for the experimental part: as §1
In the next assay the test system is TAS2R31. Kind of assay: RT-qPCR gene expression of TAS2R31 in HGT-1 cells. The method, then: as §1
In another assay the test system is TAS2R30. The assay can be described thus: RT-qPCR gene expression of TAS2R30 in HGT-1 cells. The method, then:
as §1

In the next assay the test system is TAS2R16. Kind of assay: RT-qPCR gene expression of TAS2R16 in HGT-1 cells. As for the experimental part:
as §1, with “cells. […]” for “cells.”

The values that follow come from PMC9501810, “Bitter Peptides YFYPEL, [sequence], and [sequence], Released during Gastric Digestion of Casein, Stimulate Mechanisms of Gastric Acid Secretion via Bitter Taste Receptors TAS2R16 and TAS2R38” (Journal of Agricultural and Food Chemistry, 2022).

Where “and” joins values, the source holds several entries; their conditions need not be identical. Equal values may be shown once.

In the case of “YFYPEL [bitter casein peptide αS1-CN144–149]”, the “change in gene expression of TAS2R1” value with TAS2R1 (incubation 15 min) is 0.36 fold change; in the assay with TAS2R1 (incubation 30 min), 1.03 fold change; in the assay on TAS2R1 (incubation 60 min), 0.55 fold change; in the assay on TAS2R1 (incubation 120 min) it was 0.73 fold change. The “change in gene expression of TAS2R46” value with TAS2R46 (incubation 15 min) is reported as 1.70 fold change; with TAS2R46 (incubation 30 min) it was 0.73 fold change; in the assay with TAS2R46 (incubation 60 min), 1.01 fold change; in the assay on TAS2R46 (incubation 120 min), 1.30 fold change. Besides, the “change in gene expression of TAS2R31” value with TAS2R31 (incubation 15 min) is reported as 1.65 fold change; with TAS2R31 (incubation 30 min), 0.91 fold change; in the assay on TAS2R31 (incubation 60 min), 0.96 fold change; with TAS2R31 (incubation 120 min) it was 1.09 fold change. Also, the “change in gene expression of TAS2R30” value in the assay with TAS2R30 (incubation 15 min) is listed as 1.79 fold change; in the assay on TAS2R30 (incubation 30 min), 0.62 fold change; in the assay with TAS2R30 (incubation 60 min) it was 0.89 fold change; in the assay with TAS2R30 (incubation 120 min), 1.15 fold change. Moreover, the “change in gene expression of TAS2R16” value in the assay with TAS2R16 (incubation 15 min) is 2.58 fold change; in the assay with TAS2R16 (incubation 30 min) it was 3.19 fold change and 3.19 ± 0.50 fold change; in the assay with TAS2R16 (incubation 60 min), 2.44 fold change; with TAS2R16 (incubation 120 min) it was 2.51 fold change.
Turning to “YQEPVLGPVRGPFPIIV [bitter casein peptide βA1/A2-CN193–209]”, the “change in gene expression of TAS2R1” value is given as 0.33 fold change in the assay with TAS2R1 (incubation 15 min), 0.43 fold change with TAS2R1 (incubation 30 min), 1.00 fold change in the assay on TAS2R1 (incubation 60 min) and 0.84 fold change in the assay on TAS2R1 (incubation 120 min). Also, the “change in gene expression of TAS2R46” value with TAS2R46 (incubation 15 min) is listed as 0.69 fold change; with TAS2R46 (incubation 30 min), 1.73 fold change; in the assay with TAS2R46 (incubation 60 min) it was 1.30 fold change; with TAS2R46 (incubation 120 min), 1.06 fold change. Further, the “change in gene expression of TAS2R31” value in the assay on TAS2R31 (incubation 15 min) was 0.86 fold change; in the assay with TAS2R31 (incubation 30 min) it was 1.43 fold change; in the assay with TAS2R31 (incubation 60 min) it was 1.33 fold change; with TAS2R31 (incubation 120 min), 0.99 fold change. The “change in gene expression of TAS2R30” value in the assay with TAS2R30 (incubation 15 min) is on record as 0.74 fold change; in the assay with TAS2R30 (incubation 30 min) it was 1.88 fold change; in the assay with TAS2R30 (incubation 60 min) it was 1.20 fold change; with TAS2R30 (incubation 120 min) it was 0.89 fold change. Besides, the “change in gene expression of TAS2R16” value with TAS2R16 (incubation 15 min) was 2.61 fold change; in the assay on TAS2R16 (incubation 30 min), 3.46 fold change and 3.46 ± 0.58 fold change; in the assay on TAS2R16 (incubation 60 min), 2.50 fold change; with TAS2R16 (incubation 120 min) it was 3.00 fold change.
For the substance “VAPFPEVF [bitter casein peptide αS1-CN25–32]”, the “change in gene expression of TAS2R1” value is 0.79 fold change in the assay on TAS2R1 (incubation 15 min), 1.36 fold change with TAS2R1 (incubation 30 min), 0.44 fold change in the assay with TAS2R1 (incubation 60 min) and 1.62 fold change in the assay with TAS2R1 (incubation 120 min). Moreover, the “change in gene expression of TAS2R46” value in the assay on TAS2R46 (incubation 15 min) was 0.62 fold change; in the assay on TAS2R46 (incubation 30 min) it was 1.47 fold change; in the assay with TAS2R46 (incubation 60 min) it was 0.85 fold change; with TAS2R46 (incubation 120 min), 1.95 fold change. Moreover, the “change in gene expression of TAS2R31” value amounted to 0.66 fold change in the assay with TAS2R31 (incubation 15 min), 1.14 fold change in the assay on TAS2R31 (incubation 30 min), 0.70 fold change with TAS2R31 (incubation 60 min) and 1.22 fold change in the assay with TAS2R31 (incubation 120 min). For the same substance, the “change in gene expression of TAS2R30” value is 0.56 fold change in the assay with TAS2R30 (incubation 15 min), 1.53 fold change in the assay on TAS2R30 (incubation 30 min), 0.75 fold change in the assay on TAS2R30 (incubation 60 min) and 1.62 fold change in the assay on TAS2R30 (incubation 120 min). Further, the “change in gene expression of TAS2R16” value was 1.50 fold change in the assay with TAS2R16 (incubation 15 min); 3.70 fold change and 3.70 ± 0.97 fold change in the assay with TAS2R16 (incubation 30 min); 1.65 fold change with TAS2R16 (incubation 60 min); 2.88 fold change in the assay with TAS2R16 (incubation 120 min).
